Test results as given in patent US20250042942A1, “PEPTIDE HAVING PHYSIOLOGICAL ACTIVITIES AND USE THEREOF” (CAREGEN CO., LTD., priority 2021, published 2025).
Peptide text beside a SMILES is read from it.

Tested on: mouse RAW264.7 cell line
Experiment: Cytotoxicity, CCK-8 assay
Format: cell-based
Conditions: peptide 10, 30, 30, 100, and 150 μg/ml, 3 days, CCK-8, FIG. 10B
Method: The effect of the peptide of the present invention on cell proliferation was confirmed using CCK-8 assay. CCK-8 reagent is reduced by cellular dehydrogenase to produce a colored product, and the proliferation of cells may be confirmed through a difference in absorbance using this.
After removing the medium, CCK-8 solution (Dojindo, CCK-8 kit) was diluted 10 times in the culture medium and treated at 100 μl each. During incubation at 37° C., absorbance at a wavelength of 450 nm was measured using a microplate reader at 30-minute intervals.

In the case of `CC[C@H](C)[C@H](NC(=O)[C@H](C)NC(=O)[C@@H](N)CC(N)=O)C(=O)N[C@@H](CO)C(=O)N[C@H](C(=O)N[C@@H](CC(C)C)C(=O)N[C@@H](Cc1ccc(O)cc1)C(=O)N[C@@H](Cc1ccccc1)C(=O)N[C@@H](CC(=O)O)C(=O)N[C@@H](CC(=O)O)C(=O)N[C@@H](CO)C(=O)O)C(C)C` [SEQ ID NO: 1, NAISVLYFDDS] (H-NAISVLYFDDS-OH), the “toxicity to mouse macrophages” value was “not toxic”.
